# Molecular target: T1, mouse EphA4 (binding to mouse Ephrin A1) (Mus musculus, UniProt Q03137)
# T1 construct: made in house; host or cells: HEK293EBNA cells
# Assay: Mouse EphA4-mouse ligand binding inhibition ELISA (Ephrin A1-Fc)
# Details: mouse Ephrin A1 and Ephrin B2; 0.03-1000 μM
# Method: Antibody A obtained in Example 1 was evaluated for its inhibitory activity against the binding between mouse EphA4 and its mouse ligand according to the following steps. Each well of a 96-well plate (Nunc) was coated with an anti-alkaline phosphatase antibody (Thermo Fisher Scientific). After incubation overnight at 4° C., each well was blocked with 1% BlockAce (DS Pharma Biomedical) at room temperature for 1 hour. After washing with 0.05% Tween 20/PBS (Thermo Fisher Scientific) three times, the mouse EphA4 extracellular region-SEAP-His protein obtained by the method of Example 1 was added (final concentration: 10 nM) to each well and incubated at room temperature for 1 hour. After washing three times, ligands and serially diluted antibody A (0, 0.001, 0.003, 0.01, 0.03, 0.1, 0.3, 1,3, 10, 30, 100, 300, and 1000 nM) or a known EphA4 inhibitor KYL peptide (KYLPYWPVLSSL, 0, 0.003, 0.01, 0.03, 0.1, 0.3, 1, 3, 10, 30, and 100 μM, its synthesis was outsourced to Hokkaido System Science) or compound 1 (0, 0.03, 0.1, 0.3, 1,3, 10, 30, 100, 300, and 1000 μM, Formula 1, Matrix Scientific) were added to each well. The ligands used were mouse Ephrin A1-Fc chimera (R&D Systems, final concentration: 20 nM) and mouse Ephrin B2-Fc chimera (R&D Systems, final concentration: 0.6 nM). […] The absorbance at 450 nm was read using a microplate reader (Molecular Devices).
# T1 sequence (Q03137 with tags, fused parts or gaps): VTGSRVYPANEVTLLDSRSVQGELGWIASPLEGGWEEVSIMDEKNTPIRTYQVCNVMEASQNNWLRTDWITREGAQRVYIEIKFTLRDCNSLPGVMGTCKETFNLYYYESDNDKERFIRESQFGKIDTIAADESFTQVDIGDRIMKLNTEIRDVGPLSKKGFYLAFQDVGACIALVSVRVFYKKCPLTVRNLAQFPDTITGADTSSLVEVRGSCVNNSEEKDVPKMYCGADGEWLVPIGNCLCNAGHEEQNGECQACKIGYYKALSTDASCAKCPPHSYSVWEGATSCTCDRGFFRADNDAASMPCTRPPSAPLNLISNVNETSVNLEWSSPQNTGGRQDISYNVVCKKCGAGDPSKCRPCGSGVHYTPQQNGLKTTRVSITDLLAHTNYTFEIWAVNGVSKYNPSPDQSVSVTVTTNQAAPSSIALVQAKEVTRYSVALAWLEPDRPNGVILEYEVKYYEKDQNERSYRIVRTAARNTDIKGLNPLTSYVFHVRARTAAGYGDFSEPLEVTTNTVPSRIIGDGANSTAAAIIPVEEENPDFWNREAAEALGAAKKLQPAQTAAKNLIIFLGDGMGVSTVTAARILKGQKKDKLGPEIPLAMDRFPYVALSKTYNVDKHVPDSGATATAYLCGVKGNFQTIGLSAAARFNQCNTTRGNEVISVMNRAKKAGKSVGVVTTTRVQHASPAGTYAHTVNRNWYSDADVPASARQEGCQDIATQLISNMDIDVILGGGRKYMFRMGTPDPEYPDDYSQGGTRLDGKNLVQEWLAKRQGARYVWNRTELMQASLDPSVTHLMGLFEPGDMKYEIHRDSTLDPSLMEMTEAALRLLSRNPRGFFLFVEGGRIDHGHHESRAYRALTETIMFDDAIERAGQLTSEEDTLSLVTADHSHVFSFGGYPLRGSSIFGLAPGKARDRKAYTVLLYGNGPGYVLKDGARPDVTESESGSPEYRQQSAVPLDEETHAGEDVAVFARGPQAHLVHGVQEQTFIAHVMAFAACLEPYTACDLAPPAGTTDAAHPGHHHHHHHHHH
smiles,measurement,value
"Cc1ccc(C)n1-c1ccc(C(=O)O)c(O)c1 [Compound 1, reference compound]",inhibition of binding between mouse EphA4 and mouse ligand (in words),"weaker activity, and no concentration dependence was found"
